Data as given in the kinase profiling compilation of Christmann-Franck et al. (2016).

Molecular target: SGK1 (human) (UniProt O00141)
Test: Flashplate

Chain of SGK1 (human) (O00141 whole entry, looked up): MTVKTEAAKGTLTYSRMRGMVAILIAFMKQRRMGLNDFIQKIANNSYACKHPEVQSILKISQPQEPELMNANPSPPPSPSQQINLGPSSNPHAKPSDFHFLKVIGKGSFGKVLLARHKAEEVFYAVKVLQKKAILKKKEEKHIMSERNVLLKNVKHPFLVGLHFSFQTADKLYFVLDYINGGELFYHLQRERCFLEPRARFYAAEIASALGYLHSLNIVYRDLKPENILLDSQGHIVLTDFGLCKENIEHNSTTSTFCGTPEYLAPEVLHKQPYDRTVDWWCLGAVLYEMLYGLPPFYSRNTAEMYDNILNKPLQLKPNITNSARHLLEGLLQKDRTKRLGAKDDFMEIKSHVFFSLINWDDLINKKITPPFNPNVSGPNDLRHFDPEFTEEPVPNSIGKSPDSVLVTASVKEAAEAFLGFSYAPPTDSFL

Row | SMILES | Ki [µM]
1 | Nc1ncnc2scc(-c3ccc(NC(=O)Nc4ccccc4)cc3)c12 | 3.98
2 | Oc1cccc(-c2nc(N3CCOCC3)c3oc4ncccc4c3n2)c1 | > 7.94
3 | Cc1nccn2c(-c3ccnc(NCC(C)(C)O)n3)c(-c3ccc(F)cc3F)nc12 | > 10
4 | C(=N\Nc1nc2ccccc2[nH]1)/c1c[nH]c2ccccc12 | > 10
5 | C[C@@H](NC(=O)c1ccc(-c2ccncc2)cc1)c1ccccc1 | 2
6 | Cn1cc(/C=C2\C(=O)Nc3cccnc32)c2ccccc21 | 2.51
7 | O=C(Cc1ccc(Cl)cc1)Nc1[nH]nc2c1CCC2 | > 10
8 | Cn1cc(-c2ccncn2)c(-c2ccc(F)cc2)n1 | > 10
9 | CC(=O)N[C@@H]1CCN(c2nc3[nH]cc(C(=O)O)c(=O)c3c(C)c2F)C1 | > 10
10 | Cc1cccc(NC(=O)Nc2ccc3c(c2)CCc2sc4ncnc(N)c4c2-3)c1 | > 10
11 | Cc1cccc(NC(=O)Nc2ccc(-c3csc4c(C#Cc5cccnc5)cnc(N)c34)cc2)c1 | > 10
12 | CSc1nn(-c2ccccn2)c(N)c1C(N)=O | 6.31
13 | CCCn1c(C2CCNCC2)nc(-c2ccc(Cl)c(Cl)c2)c1-c1ccnc(NC2CCCCC2)n1 | 3.16
14 | Cc1ccc(F)c(-c2ccc3nnc(N)n3c2)c1 | > 10
15 | O=C1NCCc2[nH]c(-c3ccnc(-c4ccccc4F)c3)cc21 | > 10
16 | CC(=O)N1CCC(Nc2nccc(-c3c(-c4ccc(F)cc4)nc4occn34)n2)CC1 | > 10
17 | O[C@H]1CC[C@H](Nc2cc(Cl)nc(-c3c[nH]c4ncccc34)n2)CC1 | 1
18 | CCOC(=O)c1ccc2[nH]c3c(c2c1)CCNC3=O | 6.31
19 | Cc1cc(C)cc(NC(=O)Nc2ccc(-c3cccc4snc(N)c34)cc2)c1 | > 10
20 | OCC(CO)Nc1ncnc2[nH]cc(-c3ccccc3)c12 | 7.94
21 | CC(C)n1nnc2ccc(-c3c(-c4ccc(F)cc4F)nc4occn34)cc21 | > 10
22 | c1cc2[nH]ncc2cc1-c1cn(CC2CCOCC2)nn1 | 7.94
23 | Cc1cccc(NC(=O)Nc2ccc(-c3csc4nc(N)nc(N)c34)cc2)c1 | > 10

Row | SMILES | Ki [µM]
24 | COc1cccc(CNC(=O)c2cc3c(-c4ccccc4)n[nH]c3s2)c1 | 0.794
25 | CC(=O)Nc1cc(N)c(C#N)c(-c2ccsc2)n1 | > 10
26 | Clc1ccc(-c2n[nH]cc2-c2ccncn2)cc1Cl | > 10
27 | C[C@]1(O)C[C@@H](c2nc(-c3ccc4ccc(-c5ccccc5)nc4c3)c3c(N)nccn32)C1 | > 10
28 | Cc1ccccc1NC(=O)Nc1ccc2c(c1)CCc1sc3ncnc(N)c3c1-2 | > 10
29 | Nc1ncc(-c2ccoc2)c2scc(-c3ccc(NC(=O)Nc4ccccc4F)cc3)c12 | > 10
30 | COc1cc(Nc2ncc(F)c(Nc3ccc4c(n3)NC(=O)C(C)(C)O4)n2)cc(OC)c1OC | > 7.94
31 | Nc1ncnc(Nc2cc(CNC(=O)C(F)(F)F)c(O)c(-c3ccc(Cl)cc3)c2)n1 | > 10
32 | C(=C\c1cncc(O[C@@H]2CCNC2)c1)/c1ccncc1 | > 10
33 | Cc1n[nH]c2ccc(-c3cncc(OCCN)c3)cc12 | 2
34 | Nc1nonc1-n1nnc(C(=O)N/N=C/c2cccs2)c1-c1ccccc1 | > 10
35 | O=C1Cc2c([nH]c3ccc(Br)cc23)-c2ccccc2N1 | > 10
36 | NC[C@@H](NC(=O)c1ccc(-c2ccncc2)cc1)c1ccccc1 | 0.794
37 | Nc1n[nH]c2ccc(-c3nnn(Cc4ccccc4)c3-c3ccccc3)cc12 | 0.631
38 | Nc1ncc(-c2ccoc2)c2scc(-c3ccc(NC(=O)Nc4cccc(F)c4)cc3)c12 | 6.31
39 | COc1cncc(/C=C/c2ccncc2)c1 | > 10
40 | Clc1cc(-c2c[nH]c3ncccc23)cc(NCc2ccccc2)n1 | 0.398
41 | O=C(Cc1ccccc1)Nc1cccc(-c2nc3sccn3c2-c2ccnc(Nc3cccc(N4CCOCC4)c3)n2)c1 | > 10
42 | Cc1ccc2nccc(NC(=O)Nc3cccc(C(F)(F)F)n3)c2c1 | > 10
43 | CC(=O)Nc1c(C(N)=O)sc2ccc(Cl)c(Cl)c12 | 3.98
44 | Cc1ccc(CNc2c(Nc3ccncc3)c(=O)c2=O)cc1C | > 10
45 | COc1ccc(Nc2nccc(Nc3c(N[C@H](C)C(C)(C)C)c(=O)c3=O)n2)cc1OC | 2
46 | CC(=O)Nc1cc(N)c(C#N)c(-c2ccccc2)n1 | > 10

Row | SMILES | Ki [µM]
47 | CC(C)c1nnc2ccc(-c3c(-c4ccc(F)cc4F)nc4n3CCC4)nn12 | > 10
48 | COc1ccc2c(c1)/C(=C/c1cnc[nH]1)C(O)=N2 | 1
49 | N[C@H](COc1cncc(/C=C/c2ccncc2)c1)Cc1c[nH]c2ccccc12 | 7.94
50 | O=C(Nc1cccc(C(F)(F)F)n1)Nc1ccnc2c(C(F)(F)F)cccc12 | > 10
51 | CNC(=O)N1CCN(CCCOc2ccc3c(c2)-c2[nH]nc(-c4ccc(C#N)nc4)c2C3)CC1 | > 10
52 | CCNC(=O)c1cnc(N)c2c(-c3ccc(NC(=O)Nc4cccc(F)c4)cc3)csc12 | > 10
53 | Cc1n[nH]c2c1C(c1ccccc1F)C1=C(CC(C)(C)CC1=O)N2 (configuration not stated) | > 10
54 | COc1ccc(NC(=O)Nc2ccc(-c3cccc4onc(N)c34)cc2)cc1Cl | > 10
55 | CC(C)(CO)CNc1nccc(-c2c(-c3ccc(F)cc3)nc3c(Cl)nccn23)n1 | > 10
56 | C/C(=N\NC(=O)c1nnn(-c2nonc2N)c1-c1ccccc1)c1ccco1 | > 10
57 | Cc1ccc(NC(=O)Nc2ccc(-c3csc4ncnc(N)c34)cc2)cc1C | > 10
58 | Nc1ncnc2sc(Br)c(-c3ccc(NC(=O)Cc4cccc(Cl)c4)cc3)c12 | > 10
59 | C[C@H](Nc1c(Nc2ccncc2)c(=O)c1=O)c1ccccc1 | > 10
60 | O=C(NCc1ccc(Br)cc1)Nc1ccc2[nH]ncc2c1 | 1
61 | NC(=O)c1cc2c(-c3ccc(F)cc3)cncc2s1 | 3.98
62 | O=C(O)c1c2c(nc3ccccc13)C(=C1CCCC1)CC2 | > 10
63 | COc1ccc(C(=O)N2c3ccccc3Sc3c(Cl)cncc32)cc1 | 0.398
64 | CC(C)(CO)CNc1nccc(-c2c(-c3ccc(F)cc3)nc3c(CCN)nccn23)n1 | > 10
65 | Oc1cccc(Nc2ncnc3scc(Cl)c23)c1 | > 10
66 | C[C@H](N)COc1cnc(Cl)c(/C=C/c2ccncc2)c1 | 5.01
67 | CC1CSc2c(C(=O)O)c(=O)c3cc(F)c(N4CC[C@@H](N)C4)c(F)c3n21 (some centres not stated) | > 10
68 | CCCCn1c(NC(=O)c2cccc(C#N)c2)nc2cc(N(C)C(=O)C3CCCCC3)ccc21 | > 10
69 | NC(=O)c1cc(-c2ccnc(N)n2)[nH]c1-c1ccc(Cl)cc1Cl | 1.58

Row | SMILES | Ki [µM]
70 | O=C(Nc1ccc2cn[nH]c2c1)c1ccc(Cl)cc1 | > 10
71 | Cc1cccc(Nc2nc(N[C@@H]3CCCC[C@@H]3N)cnc2C(N)=O)c1 | > 7.94
72 | COc1ccc(/C=N/Nc2ncnc3c2[nH]c2ccccc23)cc1OC | > 10
73 | O=c1cc(-c2ccncc2)nc(NC2CCCCC2)[nH]1 | > 10
74 | O=c1[nH]cnc2c1oc1ccc(Cl)cc12 | > 10
75 | O=c1c(NCc2cccc(C(F)(F)F)c2)c(Nc2ccncc2)c1=O | 2
76 | CC(C)(C(N)=O)n1cc(-c2cnc(N)c3c(-c4ccc(NC(=O)Nc5cccc(F)c5)cc4)csc23)cn1 | 3.16
77 | CC[C@@H]1C(=O)N(C)c2cnc(Nc3ccc(C(=O)NC4CCN(C)CC4)cc3OC)nc2N1C1CCCC1 | > 10
78 | Nc1nonc1-n1nnc(C(=O)N/N=C/c2cccs2)c1-c1cccs1 | > 10
79 | Cc1cccc(NC(=O)Nc2ccc(-c3csc4c(C#CC(C)(C)N)cnc(N)c34)cc2)c1 | 3.16
80 | COc1cc(Nc2ncc([N+](=O)[O-])c(Nc3ccccc3C(N)=O)n2)cc(OC)c1OC | 0.2
81 | FC(F)(F)Oc1ccc(-c2ccc3[nH]cc(C4=CCNCC4)c3c2)cc1 | > 10
82 | O=C(O)c1ccccc1Nc1ccnc(Nc2ccc3cn[nH]c3c2)n1 | 0.2
83 | COc1ccc(NC(=O)Nc2ccc(-c3csc4c(-c5cnn(CCO)c5)cnc(N)c34)cc2)cc1 | > 10
84 | CN1CCN(c2cccc(Nc3nccc(-c4c(C(N)=O)nc5ccccn45)n3)c2)CC1 | > 10
85 | Nc1noc2cccc(-c3cccc(O)c3)c12 | > 10
86 | CC(C)OC1=NNC(=O)/C1=C/c1c[nH]c2ccccc12 | > 10
87 | COc1cccc([C@@H](C)NC(=O)c2ccc(-c3ccncc3)cc2)c1 | 0.398
88 | CS(=O)(=O)Nc1ccc(-c2ccc3[nH]nc(N)c3c2)cc1 | 0.631
89 | Cc1c(O)ccc2c1CCC/C2=N/NC(=O)Cc1cccc2ccccc12 | 0.501
90 | O=C(Cc1ccccc1)Nc1cccc(-c2nc3sccn3c2-c2ccnc(Nc3ccc(N4CCOCC4)cc3)n2)c1 | > 10
91 | O=C(NCc1ccccc1)c1cccc(-c2cnc3[nH]ccc3c2)c1 | > 10
92 | COc1ccc(/C=C2/S/C(=N/c3ccccc3)NC2=O)cc1O | 5.01

Row | SMILES | Ki [µM]
93 | Cc1cc(C)cc(NC(=O)Nc2ccc3c(c2)CCc2sc4ncnc(N)c4c2-3)c1 | > 10
94 | Cc1ccccc1NC(=O)Nc1ccc(NC(=O)c2csc3ncnc(N)c23)cc1 | > 10
95 | COc1cccc([C@@H](C)NC(=O)c2ccc(-c3ccncn3)cc2)c1 | 0.631
96 | Cc1cccc(NC(=O)Nc2ccc(-c3cccc4[nH]nc(N)c34)cc2)c1 | 1
97 | C[C@@H](Nc1c(Nc2ccncc2)c(=O)c1=O)C(C)(C)C | > 10
98 | COc1cccc(C(CN)NC(=O)c2ccc(-c3ccncc3)cc2)c1 (configuration not stated) | 0.251
99 | COc1cc(Nc2nccc(Nc3cc(C4CCCCC4)no3)n2)cc(OC)c1OC | > 10
100 | Cc1cc(C)cc(NC(=O)Nc2ccc(NC(=O)c3csc4ncnc(N)c34)cc2)c1 | > 10
101 | Cc1cc(NC(=O)CCNC(=O)Nc2nc(C)c(-c3ccc(-n4cccn4)cc3)s2)no1 | > 10
102 | CN1CCN(CCCNc2cccc(-c3nc4c(C(N)=O)cccc4[nH]3)n2)CC1 | > 10
103 | CCOC(=O)c1cccc2[nH]c(-c3ccc(N4CCC(N)C4)cc3)nc12 (configuration not stated) | > 10
104 | OC(COc1cncc(/C=C/c2ccncc2)c1)Cc1c[nH]c2ccccc12 (configuration not stated) | > 10
105 | Cc1cc(C)cc(NC(=O)Nc2ccc(-c3cccc4c3CNC4=O)c(C(F)(F)F)c2)c1 | > 10
106 | N[C@H](COc1cncc(-c2ccc(F)cc2)c1)Cc1c[nH]c2ccccc12 | > 10
107 | COc1ccc(-c2cc3nccn3c(Nc3ncccc3C(N)=O)n2)cc1OC | > 10
108 | Nc1ncnc2c1c(I)nn2[C@H]1CC[C@@H](O)CC1 | 2
109 | N#Cc1ncc2nc1OCCCCCOc1cc(OCCO)c(Cl)cc1NC(=O)N2 | > 10
110 | N#Cc1ccc(-c2n[nH]c3c2Cc2ccc(OCCN4CCOCC4)cc2-3)cn1 | > 10
111 | CCCCOc1ncnc2[nH]cc(-c3ccccc3)c12 | 2.51
112 | NC(=O)c1cc2c(-c3cccc(F)c3)cncc2s1 | 3.16
